“And” between values parts separate entries of the source, which are not always exact repeats. Equal entries are not always repeated. “Also recorded” adds a separate entry of the source. Where two headings read alike, the source gives them in different places.
Experiments:
[1] = Mouse Carrageenan Edema Test; type: in vivo, mouse (Charles River CD-1, female); details: 3 h after carrageenan; for Paw Volume (edema volume): ± S.D.
Experimental: The basic experimental procedure was adapted from Sophia et al., J. Pharma. Exper. Ther. 186:646, 1973. Charles Rivier CD-1 female mice (20-25 g) were given a dose of either Δ^1 -THC-7-oic-acid, indomethacin or vehicle (control). All compounds were administered orally in a 20 ul volume of peanut oil. One hour later, 0.05 ml of a 1% solution of calcium carrageenan in saline was injected subcutaneously into the plantar surface of the right hind paw. The volume of the injected foot to the level of the lateral malleolus was measured by water displacement immediately before oral drug administration and again three hours after carrageenan injection. The difference between the two measurements was called edema volume. The effectiveness of each compound was analyzed in the following manner. For Δ^1 -THC-7-oic-acid, the mean paw volumes, before and after the metabolite was administered, were statistically compared by one-way ANOVA (analysis of variance) and Fisher PLSD Scheffe t-tests. For indomethacin, the mean paw volumes, pre- and postdrug, were statistically compared using the student's t-test. The percent inhibition of edema volume was obtained from the ratio of the predrug volume to the postdrug volume (Table II).

Rat Ulcerogenicity Test = type: in vivo, rat (Charles River CD); details: for Incidence (number of rats with lesions/total tested) / Mean Score of gastric mucosal lesions: stomach tube, 1 h; for Mean Score of gastric mucosal lesions: scale 0 (normal mucosa) to 3 (erosions longer than 5 mm or confluent hemorrhages)
Experimental: Experimental groups of 5-11 rats (Charles River CD) were fasted for 24 hours before the administration of either aspirin, Δ^1 -THC-7-oic-acid or indomethacin by a rubber stomach tube (Rusch No. 8). The animals were killed 1 hour later by carbon dioxide asphyxiation. At that time, 4 ml of 10% aqueous buffered formaldehyde (formalin) was injected directly into the stomach of each animal. This in situ intraluminal fixation with formalin was especially critical for the assessment of small gastric erosions induced by aspirin since the overlying hemorrhage could easily be removed by rinsing the unfixed stomach. After 5 minutes of in situ fixation, the stomach and proximal duodenum were removed, opened along the greater curvature, pinned on a cork with mucosa upward, and immersed in 10% formaldehyde until further processing (Szabo, S. et al, J. Pharmacol. Meth. 13:59-66, 1985). The gastric lesions were then evaluated by direct visual inspection.
For comparative purposes, a semiquantitative scale of 0-3 was used to assess the extent of gastric mucosal lesions (Scabo et al., 1981, 1983). According to this scale, a score of 0 indicates a normal mucosa; 1 represents the appearance of between 1 and 4 small petechiae; 2 indicates the presence of 5 or more petechiae or hemmorhagic streaks up to 4 mm in length; 3 represents the appearance of erosions longer than 5 mm or confluent hemorrhages.

[2] = set-up: species or system mouse (Charles River CD-1); details: mouse, in vivo
prostaglandin synthesis = details: metabolite added to culture medium prior to THC exposure; cited from earlier work
[3] = rhesus monkey; cited from earlier work
[4] = tested on: prostaglandin synthetase system; details: variety of models; cited from earlier work
[5] = humans; cited from earlier work

Row | SMILES | % Inhibition of Edema Volume ([1]; 20 mg/kg oral) [%] | Paw Volume (edema volume) ([1]; 20 mg/kg oral) [µL] | Incidence (number of rats with lesions/total tested) (Rat Ulcerogenicity Test; 10 mg/kg) | Mean Score of gastric mucosal lesions (Rat Ulcerogenicity Test; 10 mg/kg) | Incidence (number of rats with lesions/total tested) (Rat Ulcerogenicity Test; 20 mg/kg) | Mean Score of gastric mucosal lesions (Rat Ulcerogenicity Test; 20 mg/kg) | Latency (percent change of the mean reaction time compared to predrug values) [2] | gastric lesions / gastrointestinal damage (in words) (Rat Ulcerogenicity Test; 100 mg/kg, half the therapeutic dose, into the stomach) | Incidence (number of rats with lesions/total tested) (Rat Ulcerogenicity Test; 100 mg/kg) | Mean Score of gastric mucosal lesions (Rat Ulcerogenicity Test; 100 mg/kg) | antagonism of the stimulatory effect of THC on prostaglandin synthesis (prostaglandin synthesis) | % Inhibition of Edema Volume ([1]; 40 mg/kg oral) [%] | Paw Volume (edema volume) ([1]; 40 mg/kg oral) [µL] | ulcer / gastric lesion formation (in words) (Rat Ulcerogenicity Test; 50 mg/kg, directly into the stomach) | Incidence (number of rats with lesions/total tested) (Rat Ulcerogenicity Test; 50 mg/kg) | Mean Score of gastric mucosal lesions (Rat Ulcerogenicity Test; 50 mg/kg) | behavioral activity and cardiovascular effects [3] | inhibition of the prostaglandin synthetase system [4] | behavioral activity and cardiovascular effects [5] | analgesic (pain-relieving) effect / potency relative to naproxen ([2]; po)
1 | COc1ccc2c(c1)c(CC(=O)O)c(C)n2C(=O)c1ccc(Cl)cc1 [Indomethacin, reference compound] | 100 | -13 ± 17 | 2/5 | 0.6 | 6/11 | 0.77 | 52.7 and 51.1 |  |  |  |  |  |  |  |  |  |  |  |  | 
2 | CC(=O)Oc1ccccc1C(=O)O [Aspirin] |  |  |  |  |  |  |  | induced the formation of gastric lesions in each test animal; also recorded: each of the experimental animals experiences gastrointestinal damage | 10/10 | 1.9 |  |  |  |  |  |  |  |  |  | 
3 | CCCCCc1cc(O)c2c(c1)OC(C)(C)[C@@H]1CCC(C(=O)O)=CC21 (single isomer, unassigned) [Δ^1 -THC-7-oic-acid] | 53 | 9 ± 12 |  |  |  |  |  |  |  |  | dramatic lowering of the stimulatory effect of THC on prostaglandin synthesis | 79 | 4 ± 13 | did not induce ulcer formation; also recorded: does not induce the formation of gastric lesions | 0/10 | 0.0 | did not show the behavioral activity or the cardiovascular effects characteristic of the parent substance, THC | potent inhibitor of the prostaglandin synthetase system | did not show the behavioral activity or the cardiovascular effects characteristic of the parent substance, THC | merely equivalent to that of naproxen; also recorded: exhibits analgesic activity with a potency similar to that of naproxen

Reference: patent US4847290A, “Delta 1-thc-7-oic acid and analgesic and anti-inflammatory agents” (priority 1987, dated 1989)
